The target of one series is T1, SIRT2 (Homo sapiens, UniProt Q8IXJ6).
T1 construct: recombinant active enzymes SIRT1, SIRT2, and the catalytically active fragment of SIRT3
T1 sequence (Q8IXJ6 1-389): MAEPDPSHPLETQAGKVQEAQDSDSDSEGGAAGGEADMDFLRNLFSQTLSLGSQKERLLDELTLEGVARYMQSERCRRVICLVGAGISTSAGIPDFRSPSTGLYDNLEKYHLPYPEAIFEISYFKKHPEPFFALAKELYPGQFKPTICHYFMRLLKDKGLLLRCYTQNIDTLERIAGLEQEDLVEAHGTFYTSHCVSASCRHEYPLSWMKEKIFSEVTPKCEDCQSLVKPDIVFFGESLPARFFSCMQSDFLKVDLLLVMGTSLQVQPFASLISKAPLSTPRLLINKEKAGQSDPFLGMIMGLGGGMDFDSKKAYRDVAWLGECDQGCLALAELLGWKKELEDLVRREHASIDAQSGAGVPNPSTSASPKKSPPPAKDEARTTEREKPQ
Kind of series: Fluor-de-Lys biochemical sirtuin deacetylation assay, SIRT2. The conditions noted are these: 10 μM.

SMILES strings stand for the structures.

On to `CCN(c1ccc(OC)cc1)S(=O)(=O)c1cccc(C(=O)Nc2ccc(C#N)cc2)c1` [Compound 203Ba, N-(4-cyanophenyl)-3-(N-ethyl-N-(4-methoxyphenyl)sulfamoyl)benzamide], for which the melting point (in general, the temperature of the solid-liquid transition) was 168 to 169 °C. Also, at SIRT2, the inhibition (commonly the percentage by which the read-out fell short of the control) at 10 µM was found to be 53%.

In the case of `Cc1cc(Br)ccc1NC(=O)c1cccc(S(=O)(=O)N2CCCCCC2)c1` [Compound 203b, 3-(azepan-1-ylsulfonyl)-N-(4-bromo-2-methylphenyl)benzamide], the melting point lay in the range of 177 to 179 °C. Besides, the inhibition at 10 µM on SIRT2 was determined as 0%.

Compound `CCCN(CCC)S(=O)(=O)c1cccc(C(=O)Nc2ccc(Br)cc2C)c1` [Compound 203c, N-(4-bromo-2-methylphenyl)-3-(N,N-dipropylsulfamoyl)benzamide] gave a melting point of 135 to 136 °C. For the same compound, at SIRT2, at 10 µM the inhibition was 0%.

Consider `CCCN(CCC)S(=O)(=O)c1cccc(C(=O)Nc2ccc(Br)cc2)c1` [Compound 203d, N-(4-bromophenyl)-3-(N,N-dipropylsulfamoyl)benzamide], for which the melting point was 160 to 162 °C. Also, on SIRT2, the inhibition at 10 µM was determined as 9%.

Turning to `CCCN(CCC)S(=O)(=O)c1cccc(C(=O)Nc2cccc(Br)c2)c1` [Compound 203f, N-(3-bromophenyl)-3-(N,N-dipropylsulfamoyl)benzamide], the melting point was in the range of 105 to 107 °C. For the same compound, at 10 µM the inhibition against SIRT2 was 60%.

The compound `CCCN(CCC)S(=O)(=O)c1cccc(C(=O)Nc2cccc([N+](=O)[O-])c2)c1` [Compound 203h, 3-(N,N-dipropylsulfamoyl)-N-(3-nitrophenyl)benzamide] yielded a melting point of 126 to 128 °C. This compound showed an inhibition at 10 µM on SIRT2 of 50%.

On to `CC(=O)Nc1cccc(NC(=O)c2cccc(S(=O)(=O)N3CCCCCC3)c2)c1` [Compound 203k, N-(3-acetamidophenyl)-3-(azepan-1-ylsulfonyl)benzamide], for which the melting point lay within 117 to 120 °C. This compound also gave an inhibition at 10 µM at SIRT2 of 59%.

Consider `Cc1cc(Cl)ccc1N(C)C(=O)c1cccc(S(=O)(=O)N(C)c2ccc(Br)cc2)c1` [Compound 203l, 3-(N-(4-bromophenyl)-N-methylsulfamoyl)-N-(4-chloro-2-methylphenyl)-N-methylbenzamide], for which the melting point fell in the range of 124 to 125 °C. For the same compound, the inhibition at 10 µM against SIRT2 came to 25%.

Regarding `Cc1cc(F)ccc1N(C)C(=O)c1cccc(S(=O)(=O)N(C)c2ccc(Br)cc2)c1` [Compound 203m, 3-(N-(4-bromophenyl)-N-methylsulfamoyl)-N-(4-fluoro-2-methylphenyl)-N-methylbenzamide], the melting point was in the range of 104 to 105 °C. In addition, the inhibition at 10 µM on SIRT2 turned out to be 28%.

The compound `Cc1cc(Cl)ccc1NC(=O)c1cccc(S(=O)(=O)N(C)c2ccc(Br)cc2)c1` [Compound 203n, 3-(N-(4-bromophenyl)-N-methylsulfamoyl)-N-(4-chloro-2-methylphenyl)benzamide] returned a melting point of 163 to 164 °C. The inhibition at 10 µM on SIRT2 is 18%.

`Cc1cc(F)ccc1NC(=O)c1cccc(S(=O)(=O)N(C)c2ccc(Br)cc2)c1` [Compound 203o, 3-(N-(4-bromophenyl)-N-methylsulfamoyl)-N-(4-fluoro-2-methylphenyl)benzamide]: the melting point is 163 to 165 °C. The inhibition at 10 µM on SIRT2 was determined as 14%.

`CN(c1ccc(Br)cc1)S(=O)(=O)c1cccc(C(=O)Nc2ccc(Cl)cc2F)c1` [Compound 203q, 3-(N-(4-bromophenyl)-N-methylsulfamoyl)-N-(4-chloro-2-fluorophenyl)benzamide]: the melting point was in the range of 117 to 118 °C. This compound came in with an inhibition at 10 µM at SIRT2 of 29%.

Regarding `CN(c1ccc(Br)cc1)S(=O)(=O)c1cccc(C(=O)Nc2ccc(F)cc2F)c1` [Compound 203u, 3-(N-(4-bromophenyl)-N-methylsulfamoyl)-N-(2,4-difluorophenyl)benzamide], the melting point was in the range of 119 to 120 °C. In addition, on SIRT2, testing at 10 µM gave an inhibition of 22%.

`CN(c1ccc(Cl)cc1)S(=O)(=O)c1cccc(C(=O)Nc2ccc(Br)cc2F)c1` [Compound 203w, N-(4-bromo-2-fluorophenyl)-3-(N-(4-chlorophenyl)-N-methylsulfamoyl)benzamide] yielded a melting point of 126 to 127 °C. The inhibition at 10 µM against SIRT2 amounted to 31%.

`CN(c1ccc(Cl)cc1)S(=O)(=O)c1cccc(C(=O)Nc2ccc(Cl)cc2C#N)c1` [Compound 203x, N-(4-chloro-2-cyanophenyl)-3-(N-(4-chlorophenyl)-N-methylsulfamoyl)benzamide] registered a melting point of 157 to 158 °C. Also, at 10 µM the inhibition against SIRT2 was 15%.

In the case of `CN(c1ccc(Cl)cc1)S(=O)(=O)c1cccc(NC(=O)c2ccc(Br)cc2)c1` [Compound 207a, 4-bromo-N-(3-(N-(4-chlorophenyl)-N-methylsulfamoyl)phenyl)benzamide], the melting point was 187 to 189 °C. The same compound came in with an inhibition at 10 µM at SIRT2 of 28%.

`CN(c1ccc(S(C)(=O)=O)cc1)S(=O)(=O)c1cccc(NC(=O)c2ccc(Br)cc2)c1` [Compound 207b, 4-bromo-N-(3-(N-methyl-N-(4-(methylsulfonyl)phenyl)sulfamoyl)phenyl)benzamide] yielded a melting point of 216 to 218 °C. The inhibition at 10 µM at SIRT2 was found to be 57%.

Regarding `CN(c1ccc(S(C)(=O)=O)cc1)S(=O)(=O)c1cccc(NC(=O)c2ccc([S+](C)[O-])cc2)c1` (stereo not drawn) [Compound 207c, N-(3-(N-methyl-N-(4-(methylsulfonyl)phenyl)sulfamoyl)phenyl)-4-(methylsulfinyl)benzamide], the melting point was in the range of 184 to 186 °C. For the same compound, at 10 µM the inhibition on SIRT2 was 47%.

With `CN(c1ccc(S(C)(=O)=O)cc1)S(=O)(=O)c1cccc(NC(=O)c2ccc(S(C)(=O)=O)cc2)c1` [Compound 207d, N-(3-(N-methyl-N-(4-(methylsulfonyl)phenyl)sulfamoyl)phenyl)-4-(methylsulfonyl)benzamide], the melting point is 213 to 215 °C (dec.). Also, the inhibition at 10 µM against SIRT2 worked out at 26%.

In turn, `CSc1ccc(CSc2cccc(C(=O)Nc3ccc(C#N)cn3)c2)cc1` [Compound 211a, N-(5-cyanopyridin-2-yl)-3-((4-(methylthio)benzyl)thio)benzamide] displayed a melting point of 161 to 162 °C. Also, the inhibition at 10 µM on SIRT2 was found to be 63%.

As to `CSc1ccc(CSc2cccc(C(=O)Nc3ccc(Cl)cn3)c2)cc1` [Compound 211b, N-(5-chloropyridin-2-yl)-3-((4-(methylthio)benzyl)thio)benzamide], the melting point is 159 to 161 °C. Besides, at SIRT2, the inhibition at 10 µM was 42%.

As to `COc1ccc(CSc2cccc(C(=O)Nc3ccc(C#N)cc3)c2)cc1` [Compound 211c, N-(4-cyanophenyl)-3-((4-methoxybenzyl)thio)benzamide], the melting point is 167 to 169 °C. This compound gave an inhibition at 10 µM on SIRT2 of 69%.

Compound `COc1ccc(CSc2cccc(C(=O)Nc3ccc(C#N)cn3)c2)cc1` [Compound 211d, N-(5-cyanopyridin-2-yl)-3-((4-methoxybenzyl)thio)benzamide] came in with a melting point of 163 to 164 °C. The inhibition at 10 µM against SIRT2 came to 46%.

Compound `N#Cc1ccc(NC(=O)c2ccnc(SCc3ccc(F)cc3)c2)cc1` [Compound 211e, N-(4-cyanophenyl)-2-((4-fluorobenzyl)thio)isonicotinamide] yielded a melting point of 160 to 162 °C. At SIRT2, this compound had an inhibition at 10 µM of 74%.

The record behind these values is US9890117B2, “Benzamide compounds and related methods of use” (Northwestern University, priority 2012, dated 2018).
